# Legend:
# [1] = tested on: P. falciparum male gametocytes; experiment: P. falciparum Dual Gamete Formation Assay (PfDGFA), male readout (exflagellation); format: cell-based, Plasmodium falciparum NF54; settings: for Average inhibition male (%): average of replicates; for % inhibition male (individual replicates) R1: replicate R1; for % inhibition male (individual replicates) R3: replicate R3; for % inhibition male (individual replicates) R4: replicate R4; for Activity: hit = >50% inhibition in male or female readout in at least 3 replicates, 0 = no class assigned
# How it was run: (§1)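 Day-14 NF54 gametocytes were incubated with compound for 24 h at 37°C under 1% O2/3% CO2/96% N2. Gametogenesis was triggered with ookinete medium (0.1 μM xanthurenic acid) plus Cy3-anti-Pfs25, and exflagellation was imaged by brightfield after cooling to 4°C then 28°C. Females were imaged by Pfs25 fluorescence 24 h later at 28°C.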
# [2] = tested on: P. falciparum female gametocytes; experiment: P. falciparum Dual Gamete Formation Assay (PfDGFA), female readout (Pfs25-positive female gametes); format: cell-based, Plasmodium falciparum NF54; settings: for Average inhibition female (%): average of replicates; for % inhibition female (individual replicates) R1: replicate R1; for % inhibition female (individual replicates) R3: replicate R3; for % inhibition female (individual replicates) R4: replicate R4
# How it was run: as §1
# [3] = 2µM, 24h preincubation with gametocytes prior to induction of gametogenesis
# [4] = 2µM, 24h preincubation, hits selected on >50% inhibition in the male readout across replicates
# [5] = PfDGFA at 2µM, 24h preincubation
# [6] = 2µM, 24h preincubation, hits selected on >50% inhibition in the female readout across replicates
# [7] = PfDGFA at 2µM, 24h preincubation with gametocytes prior to induction of gametogenesis
# [8] = 2µM, 24h preincubation, number of replicates with >50% inhibition in the male readout
# [9] = 2µM, 24h preincubation, number of replicates with >50% inhibition in the female readout
# [10] = PfDGFA at 2µM, 24h preincubation with gametocytes
Compound,"Average inhibition male (%) [1, 3] [%]","% inhibition male (individual replicates) R1 [1, 3] [%]","% inhibition male (individual replicates) R3 [1, 3] [%]","% inhibition male (individual replicates) R4 [1, 3] [%]","HitlevelM [1, 4]","Activity [1, 5]","Average inhibition female (%) [2, 3] [%]","% inhibition female (individual replicates) R1 [2, 3] [%]","% inhibition female (individual replicates) R3 [2, 3] [%]","% inhibition female (individual replicates) R4 [2, 3] [%]","HitlevelF [2, 6]","HitlevelM [1, 8]","HitlevelF [2, 9]",further results
Cc1cccc2nc(-c3cccc(-c4cccc(CNCCN5CCNCC5)c4)c3)[nH]c12.O=C(O)C(F)(F)F [TCMDC-132873],29.1,24.4,9.9,46.2,0,0,9.7,14.0,9.9,0.33,0,,,
CN(c1ncc(-c2cccc(CNCc3ccccc3O)c2)cn1)C1CCCCC1 [TCMDC-133137],,,,,,,,,,,,,,"% inhibition male (individual replicates) R1 [1, 7]: -18.7%; % inhibition male (individual replicates) R4 [1, 7]: -25.6%; Average inhibition male (%) [1, 5]: -17.4%; % inhibition female (individual replicates) R1 [2, 7]: 2.5%; % inhibition female (individual replicates) R3 [2, 7]: -2.1%; % inhibition female (individual replicates) R4 [2, 7]: 17.4%; Average inhibition female (%) [2, 5]: 2.8%"
Cl.c1cc(CNC2Cc3ccccc3C2)cc(-c2cnc(N3CCNCC3)nc2)c1 [TCMDC-133140],40.3,37.9,14.1,54.9,,,27.8,25.6,8.0,43.1,,2,0,
CN1CCCC1CCNCc1cccc(-c2cnc(N(C)C3CCCCC3)nc2)c1 (stereo not drawn) [TCMDC-133141],,,,,,,,,,,,,,"Average inhibition male (%) [1, 10]: 74.0%; % inhibition male (individual replicates) R1 [1, 10]: 71.5%; % inhibition male (individual replicates) R3 [1, 10]: 68.9%; % inhibition male (individual replicates) R4 [1, 10]: 81.6%; HitlevelM ([1]; number of replicates with >50% inhibition in the male readout, 2µM): 4; Average inhibition female (%) [2, 10]: 34.0%; % inhibition female (individual replicates) R1 [2, 10]: 30.5%; % inhibition female (individual replicates) R3 [2, 10]: 11.1%; % inhibition female (individual replicates) R4 [2, 10]: 42.8%; HitlevelF ([2]; number of replicates with >50% inhibition in the female readout, 2µM): 1"
CCCN(CC1CC1)c1ncc(-c2cccc(CNCCC3CCCN3C)c2)cn1 (stereo not drawn) [TCMDC-133142],41.7,43.1,28.4,53.6,1,0,16.5,26.9,12.7,-0.1,0,,,
CN(CCc1ccccc1)c1ncc(-c2cccc(CNCCC3CCCN3C)c2)cn1 (stereo not drawn) [TCMDC-133143],57.0,66.7,31.4,52.9,,,35.0,22.5,13.4,55.4,,3,1,
CN1CCCC1CCNCc1cccc(-c2cnc(N3CCCC(C)(C)C3)nc2)c1 (stereo not drawn) [TCMDC-133144],57.1,64.8,37.3,70.2,,,21.7,23.0,21.4,13.1,,3,0,
O=C(Nc1ccsc1)Nc1cccc(-c2ccc(-c3nc4cc(C(F)(F)F)ccc4[nH]3)cc2)c1 [TCMDC-133210],,,,,,,,,,,,,,"% inhibition male (individual replicates) R1 [1, 7]: -6.9%; % inhibition male (individual replicates) R3 [1, 7]: -21.6%; % inhibition male (individual replicates) R4 [1, 7]: 0.9%; Average inhibition male (%) [1, 5]: -14.6%; % inhibition female (individual replicates) R1 [2, 7]: 5.3%; % inhibition female (individual replicates) R3 [2, 7]: -25.6%; % inhibition female (individual replicates) R4 [2, 7]: -2.5%; Average inhibition female (%) [2, 5]: -7.9%"
CCCCCN1CCCC1CNS(=O)(=O)c1cccc(C(=O)Nc2cccc(C#N)c2)c1.O=C(O)C(F)(F)F (stereo not drawn) [TCMDC-133690],,,,,,,,,,,,,,"% inhibition male (individual replicates) R1 [1, 7]: -0.3%; % inhibition male (individual replicates) R4 [1, 7]: 15.0%; Average inhibition male (%) [1, 5]: 7.9%; % inhibition female (individual replicates) R1 [2, 7]: 2.9%; % inhibition female (individual replicates) R3 [2, 7]: -5.0%; % inhibition female (individual replicates) R4 [2, 7]: 6.8%; Average inhibition female (%) [2, 5]: -0.08%"
Cl.NCc1ccc(-c2ccc3c(N)nccc3c2)cc1 [TCMDC-133718],18.4,-0.6,-25.8,49.6,,,21.1,11.2,8.8,10.1,,1,1,
Cc1cccc(-c2cccc(CNc3nc(NCCc4ccc(O)cc4)nc(N4CCNCC4)n3)c2)c1.O=C(O)C(F)(F)F [TCMDC-133810],-4.6,-4.0,-16.3,16.2,0,0,7.6,16.4,-13.0,18.6,0,,,
CN1CCC(N2CCN(Cc3cccc(-c4ccc(-c5nc6cc(F)ccc6[nH]5)cc4)c3)CC2)CC1.O=C(O)C(F)(F)F [TCMDC-133858],26.9,35.0,-5.5,46.2,0,0,6.0,1.0,-3.8,20.5,0,,,
Cc1cccc2nc(-c3ccc(-c4ccc(CN5CCC(N)C5)cc4)s3)[nH]c12.O=C(O)C(F)(F)F (stereo not drawn) [TCMDC-133862],-1.0,-13.8,,7.3,0,0,4.0,5.8,5.7,2.9,0,,,
Cc1cccc2nc(-c3ccc(-c4ccc(CN5CCN(C6CCN(C)CC6)CC5)cc4)s3)[nH]c12.O=C(O)C(F)(F)F [TCMDC-133866],12.4,12.8,24.6,21.2,,,32.5,26.9,41.8,27.5,,0,0,
NC1CCN(Cc2ccc(-c3ccc(-c4nc5ccccc5[nH]4)cc3)cc2)C1.O=C(O)C(F)(F)F (stereo not drawn) [TCMDC-133868],53.2,65.7,18.3,71.6,,,15.3,0.6,-10.8,34.5,,3,0,
NC1CCN(Cc2ccc(-c3ccc(-c4nc5cc(F)ccc5[nH]4)cc3)cc2)C1.O=C(O)C(F)(F)F (stereo not drawn) [TCMDC-133872],30.9,32.1,18.9,53.6,1,0,9.7,21.7,5.5,3.9,0,,,
O=C(O)C(F)(F)F.c1cc(-c2ccc(CN3CCCCC3)cc2)cc(-c2nc3ccccc3[nH]2)c1 [TCMDC-133917],9.6,7.6,11.1,9.5,0,0,7.0,8.8,-3.2,28.3,0,,,
